The record followed here is ChEMBL document CHEMBL5518179, “Resveratrol-derived inhibitors of the E3 ubiquitin ligase PELI1 inhibit the metastasis of triple-negative breast cancer” (Eur J Med Chem, 2024).

A word on the Kd: it is the constant that tells how readily two partners part at equilibrium.

The target of one experiment is T1, E3 ubiquitin-protein ligase pellino homolog 1 (Homo sapiens, UniProt Q96FA3).
T1 sequence (Q96FA3 whole entry): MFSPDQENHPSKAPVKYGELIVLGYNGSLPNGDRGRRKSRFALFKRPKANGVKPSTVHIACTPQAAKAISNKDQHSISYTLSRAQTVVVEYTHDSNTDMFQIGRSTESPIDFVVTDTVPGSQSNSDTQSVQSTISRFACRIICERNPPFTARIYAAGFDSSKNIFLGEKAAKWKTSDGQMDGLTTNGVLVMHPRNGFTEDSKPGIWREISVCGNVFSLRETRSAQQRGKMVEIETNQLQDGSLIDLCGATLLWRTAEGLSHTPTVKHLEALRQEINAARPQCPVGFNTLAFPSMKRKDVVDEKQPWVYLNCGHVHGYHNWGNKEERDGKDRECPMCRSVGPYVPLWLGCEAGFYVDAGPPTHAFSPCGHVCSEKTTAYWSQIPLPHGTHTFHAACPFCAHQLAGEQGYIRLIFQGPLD
The experiment can be described thus: Binding affinity to PELI1 FHA domain (unknown origin) expressed in Escherichia coli BL21(DE3) competent cell measured after 1 min by fluorescence quenching assay.
Conditions: not given; call rule not given here
For the compound `CNC(=O)/C=C/c1ccc(/C=C/c2cc(O)cc(O)c2)cc1`, the Kd result is on record as “Not Active”.
Consider `Oc1cc(O)cc(/C=C/c2ccc(-c3ccsc3)cc2)c1`, for which the Kd entry is reported as “Not Active”.
The same measure, in the same setting: under `Oc1ccc(-c2ccc(/C=C/c3cc(O)cc(O)c3)cc2)cc1` stands “Not Active”.
Still for that read-out and setting: in the case of `O=[N+]([O-])c1cccc(-c2ccc(/C=C/c3cc(O)cc(O)c3)cc2)c1` it was “Not Active”; in that of `O=C(/C=C/c1ccc(/C=C/c2cc(O)cc(O)c2)cc1)N1CCCCC1`, “Not Active”.
On the same count and under the same terms, under `O=C(/C=C/c1ccccc1)Nc1ccc(O)c(/C=C/c2cc(O)cc(O)c2)c1` stands “Not Active”.
Regarding `O=C(/C=C/c1ccccc1)Nc1ccc(/C=C/c2cc(O)cc(O)c2)cc1`, the Kd result was “Not Active”.
Take `C/C=C/C(=O)Nc1ccc(/C=C/c2cc(O)cc(O)c2)cc1`: the Kd entry was “Not Active”.
The same measure, in the same setting: in the case of `CN(C)C(=O)/C=C/c1ccc(/C=C/c2cc(O)cc(O)c2)cc1` it was “Not Active”; in that of `CCCNC(=O)/C=C/c1ccc(/C=C/c2cc(O)cc(O)c2)cc1`, “Not Active”; in that of `NC(=O)/C=C/c1ccc(/C=C/c2cc(O)cc(O)c2)cc1`, “Not Active”.
On the same count and under the same terms, in the case of `Oc1cc(O)cc(/C=C/c2ccc(-c3ccoc3)cc2)c1` it was “Not Active”; in that of `Oc1cc(O)cc(/C=C/c2ccc(-c3ccccc3)cc2)c1`, “Not Active”.
On to `Oc1cc(O)cc(/C=C/c2ccc(-c3cccc(O)c3)cc2)c1`, for which the Kd entry is recorded as “Not Active”.

The same experiment, now with this note: read-out: Kd.
Regarding `CNC(=O)/C=C/c1ccccc1`, the dissociation constant Kd is 212 µM.
For `CNC(=O)/C=C/c1ccc(O)c(/C=C/c2cc(O)cc(O)c2)c1`, the Kd stood at 59.9 µM.
Turning to `NC(=O)/C=C/c1ccc(O)c(/C=C/c2cc(O)cc(O)c2)c1`, the Kd amounted to 55.7 µM.
On the same count and under the same terms, in the case of `O=C(/C=C/c1cc(/C=C/c2cc(O)cc(O)c2)ccc1O)N1CCCCC1` it was 37.9 µM; in that of `CNC(=O)/C=C/c1cc(/C=C/c2cc(O)cc(O)c2)ccc1O`, 42.3 µM; in that of `O=C(/C=C/c1ccccc1)Nc1cc(/C=C/c2cc(O)cc(O)c2)ccc1O`, 124 µM.
On to `C/C=C/C(=O)Nc1cc(/C=C/c2cc(O)cc(O)c2)ccc1O`, for which the dissociation constant Kd came to 126 µM.
Take `O=C(/C=C/c1ccc(O)c(/C=C/c2cc(O)cc(O)c2)c1)N1CCCCC1`: the Kd stood at 26.9 µM.
On the same count and under the same terms, in the case of `CCCNC(=O)/C=C/c1cc(/C=C/c2cc(O)cc(O)c2)ccc1O` it was 44.4 µM.
On the same count and under the same terms, under `C/C=C/C(=O)Nc1ccc(O)c(/C=C/c2cc(O)cc(O)c2)c1` stands 64.3 µM.
The same measure, in the same setting: in the case of `O=C(/C=C/c1ccccc1)Nc1cc(O)ccc1/C=C/c1cc(O)cc(O)c1` it was 51.5 µM; in that of `C/C=C/C(=O)Nc1cc(O)ccc1/C=C/c1cc(O)cc(O)c1`, 86.9 µM; in that of `CN(C)C(=O)/C=C/c1cc(O)ccc1/C=C/c1cc(O)cc(O)c1`, 104 µM.
As for `NC(=O)/C=C/c1cc(O)ccc1/C=C/c1cc(O)cc(O)c1`, the Kd came out at 40.1 µM.
Still for that read-out and setting: under `O=C(/C=C/c1cc(O)ccc1/C=C/c1cc(O)cc(O)c1)N1CCCCC1` stands 96.3 µM.
Take `CNC(=O)/C=C/c1cc(O)ccc1/C=C/c1cc(O)cc(O)c1`: the equilibrium dissociation constant (Kd) worked out at 39.3 µM.
For the compound `CCCNC(=O)/C=C/c1cc(O)ccc1/C=C/c1cc(O)cc(O)c1`, the Kd worked out at 70.1 µM.
In the case of `O=c1ccc2ccc(O)c(O)c2o1` [DAPHNETIN], the Kd stood at 336 µM.
Take `O=C(Nc1ccccc1)c1cccnc1` [NICOTINANILIDE]: the equilibrium dissociation constant (Kd) came to 336 µM.
Turning to `Oc1ccc(/C=C/c2cc(O)cc(O)c2)cc1` [RESVERATROL], the Kd is 125 µM.
Still for that read-out and setting: in the case of `COc1cc(C=O)ccc1O` [VANILLIN] it was 228 µM.
